The source of these data is ChEMBL document CHEMBL1145114, “The combi-targeting concept: chemical dissection of the dual targeting properties of a series of "combi-triazenes"” (J Med Chem, 2003).

Experiment [1] deals with NIH3T3. As to the kind of experiment: cells. The following applies: Mus musculus.
Description: Selective inhibition of serum stimulated growth of NIH3T3neu isogenic cells
A further experiment relates to A-431. Description: In vitro inhibition of A431 (human carcinoma) cell basal growth. In kind it is functional, cell-based.
In experiment [2] the test system is NIH3T3. As to the kind of experiment: cells. The settings on record: Mus musculus. The source holds these as a separate data set.
Description: Selective inhibition of serum stimulated growth of NIH3T3 isogenic cells
The target in experiment [3] is Epidermal growth factor receptor (Homo sapiens, UniProt P00533). Description: In vitro inhibition of Epidermal growth factor receptor tyrosine kinase isolated from A431 (human carcinoma).
Epidermal growth factor receptor, sequence (P00533 whole entry): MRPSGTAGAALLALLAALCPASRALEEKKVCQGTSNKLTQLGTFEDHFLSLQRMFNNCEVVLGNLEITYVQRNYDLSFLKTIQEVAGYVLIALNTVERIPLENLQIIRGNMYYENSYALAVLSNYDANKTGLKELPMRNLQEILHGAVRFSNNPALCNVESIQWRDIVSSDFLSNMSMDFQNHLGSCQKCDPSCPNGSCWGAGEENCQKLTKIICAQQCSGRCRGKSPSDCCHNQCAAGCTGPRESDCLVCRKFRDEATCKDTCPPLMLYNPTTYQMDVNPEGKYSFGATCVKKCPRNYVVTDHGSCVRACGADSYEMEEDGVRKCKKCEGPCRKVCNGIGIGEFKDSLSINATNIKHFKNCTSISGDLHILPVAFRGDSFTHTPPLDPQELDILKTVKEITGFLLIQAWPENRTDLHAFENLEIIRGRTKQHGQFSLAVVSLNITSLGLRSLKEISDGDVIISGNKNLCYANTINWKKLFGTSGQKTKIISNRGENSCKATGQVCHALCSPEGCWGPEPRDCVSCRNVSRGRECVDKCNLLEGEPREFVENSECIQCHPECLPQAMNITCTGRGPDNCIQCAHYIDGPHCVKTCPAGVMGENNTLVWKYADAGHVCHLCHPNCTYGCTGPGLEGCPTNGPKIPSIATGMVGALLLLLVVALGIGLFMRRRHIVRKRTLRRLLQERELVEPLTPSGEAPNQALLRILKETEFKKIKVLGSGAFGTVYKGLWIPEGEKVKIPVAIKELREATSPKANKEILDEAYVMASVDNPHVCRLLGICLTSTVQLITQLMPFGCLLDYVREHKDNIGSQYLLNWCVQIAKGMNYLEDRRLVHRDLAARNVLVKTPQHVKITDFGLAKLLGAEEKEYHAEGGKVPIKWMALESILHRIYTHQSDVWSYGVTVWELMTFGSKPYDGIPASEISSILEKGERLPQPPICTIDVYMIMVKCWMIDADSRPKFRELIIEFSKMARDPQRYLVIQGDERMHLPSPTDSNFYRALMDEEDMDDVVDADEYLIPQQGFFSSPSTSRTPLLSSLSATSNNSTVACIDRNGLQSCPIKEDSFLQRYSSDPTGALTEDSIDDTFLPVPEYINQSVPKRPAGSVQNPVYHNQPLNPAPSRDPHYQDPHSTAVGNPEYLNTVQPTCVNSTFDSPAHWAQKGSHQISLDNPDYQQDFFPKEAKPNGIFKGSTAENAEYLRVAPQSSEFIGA

By IC50 is commonly meant the point on the concentration scale where inhibition reaches its midpoint. Higher therefore signals lower potency. In the case of `Cc1cccc(Nc2ncnc3ccc(/N=N/N(C)C)cc23)c1`, the half-inhibitory concentration (IC50) with NIH3T3 [1] was found to be 6.94 µM; in the experiment on A-431 it was 94 µM; in the experiment with NIH3T3 [2], 50.8 µM; in experiment [3], 0.024 µM.
As to `C/N=N/Nc1ccc2ncnc(Nc3cccc(Cl)c3)c2c1`, the IC50 in the experiment on NIH3T3 [1] was found to be 4.16 µM; with A-431, 16.7 µM; in the experiment on NIH3T3 [2], 32.1 µM.
For `CN(C)/N=N/c1ccc2ncnc(Nc3cccc(Br)c3)c2c1`, the IC50 was found to be 3.74 µM with NIH3T3 [1], 100 µM in the experiment with A-431, 52.5 µM in the experiment with NIH3T3 [2] and 0.011 µM in experiment [3].
Take `CN=NNc1ccc2ncnc(N(C)c3ccccc3)c2c1`: the IC50 turned out to be 81 µM in the experiment with NIH3T3 [1], 89.5 µM in the experiment on A-431, 30.5 µM in the experiment with NIH3T3 [2] and 8 µM in experiment [3].
The matching figures for `CN(C)/N=N/c1ccc2ncnc(Nc3cccc(Cl)c3)c2c1`: 3.09 µM, 100 µM, 60.4 µM and 0.014 µM.
As for `CN(c1ccccc1)c1ncnc2ccc(N)cc12`, the IC50 came out at 99.4 µM with NIH3T3 [1], 116 µM in the experiment on A-431, 71.4 µM in the experiment on NIH3T3 [2] and 8.4 µM in experiment [3].
As for `COCC/N=N/Nc1ccc2ncnc(Nc3cccc(Br)c3)c2c1`, the IC50 in the experiment with NIH3T3 [1] worked out at 2.98 µM; with A-431 it was 40 µM; in the experiment on NIH3T3 [2] it was 42.9 µM.
Regarding `CN(C)/N=N/c1ccc2ncnc(NCc3ccccc3)c2c1`, the IC50 in the experiment on NIH3T3 [1] turned out to be 33.9 µM; in the experiment on A-431 it was 50.3 µM; in the experiment with NIH3T3 [2], 67.3 µM; in experiment [3] it was 0.482 µM.
With `C/N=N/Nc1ccc2ncnc(Nc3cccc(C)c3)c2c1`, the IC50 was found to be 9.69 µM in the experiment with NIH3T3 [1], 23.2 µM with A-431 and 68.3 µM in the experiment on NIH3T3 [2].
Regarding `Brc1cccc(Nc2ncnc3ccc(N/N=N/CCN4CCOCC4)cc23)c1`, the IC50 amounted to 2.92 µM with NIH3T3 [1], 33 µM with A-431, 22.2 µM in the experiment on NIH3T3 [2] and 0.064 µM in experiment [3].
On the same counts, the results for `CN(C)CCN=NNc1ccc2ncnc(Nc3cccc(Br)c3)c2c1` are 3.4 µM, 12.4 µM, 16.7 µM and 0.038 µM.
On to `C/N=N/Nc1ccc2ncnc(Nc3cccc(Br)c3)c2c1`, for which the results for the IC50 with NIH3T3 [1], in the experiment on A-431 and in the experiment with NIH3T3 [2] were 4.32 µM, 16 µM and 33 µM, respectively.
As to `CN(c1ccccc1)c1ncnc2ccc(NN=NCc3ccccn3)cc12`, the IC50 came to 64.1 µM in the experiment with NIH3T3 [1], 25.1 µM in the experiment with A-431, 39.4 µM in the experiment on NIH3T3 [2] and 9.3 µM in experiment [3].
The matching figures for `CN=NNc1ccc2ncnc(NCc3ccccc3)c2c1`: 34.9 µM, 20 µM, 50.3 µM and 0.335 µM.
The matching figures for `Brc1cccc(Nc2ncnc3ccc(NN=NCc4ccccn4)cc23)c1`: 4.06 µM, 11.4 µM, 30.6 µM and 0.238 µM.
The matching figures for `Nc1ccc2ncnc(NCc3ccccc3)c2c1`: 33.8 µM, 25 µM, 96.7 µM and 0.508 µM.
Take `Cc1cccc(Nc2ncnc3ccc(N)cc23)c1`: the IC50 in the experiment with NIH3T3 [1] was 7.2 µM; with A-431 it was 65 µM; in the experiment with NIH3T3 [2] it was 90 µM.
On to `CN(C)/N=N/c1ccc2ncnc(N(C)c3ccccc3)c2c1`, for which the IC50 with NIH3T3 [1] was 31.6 µM; in the experiment on A-431, 29.8 µM; in the experiment on NIH3T3 [2] it was 47 µM; in experiment [3], 13.3 µM.
On the same counts, the results for `Brc1cccc(Nc2ncnc3ccc(NN=NCc4ccccc4)cc23)c1` are 11.2 µM, 20 µM, 60.2 µM and 0.025 µM.
In the case of `Nc1ccc2ncnc(Nc3cccc(Br)c3)c2c1`, the IC50 is 4.1 µM in the experiment on NIH3T3 [1], 45 µM in the experiment with A-431 and 52.9 µM in the experiment on NIH3T3 [2].
